# Test system: Coptotermes formosanus Shiraki
# Experiment: Test Example 1: termite-killing test on treated filter paper
# Format: in vivo
# Conditions: mortality class; 1 ml of a 500 ppm solution on filter paper, seven days after inoculation, triplicate group of 10 insects
# Method: A filter paper was spread in a glass dish having a diameter of 9 cm, onto which was dropped 1 ml of a 500 ppm solution of the ant controller of the present invention. Then, the filter paper was inoculated with Coptotermes formosanus Shiraki. Seven days after the inoculation, percentage of dead insects was investigated, from which mortality was calculated. The test was carried out with triplicate group of 10 insects.
row,Structure (SMILES),Termite-killing effect
1,N#Cc1ccc(CC(NNC(=O)Nc2ccc(OC(F)(F)F)cc2)c2cccc(C(F)(F)F)c2)cc1 (stereo not shown) [Compound 96],A (100)
2,N#Cc1ccc(CC(=NNC(=O)Nc2ccc(OC(F)(F)F)cc2)c2cccc(C(F)(F)F)c2)cc1 [Compound 44],C (89-80)
3,O=C(C=NN(Cc1ccc(Cl)cc1)c1ccccc1)Nc1ccc(OC(F)(F)F)cc1 [Compound 123],A (100)
4,O=C(NN=C(Cc1ccc(Cl)cc1)c1ccccc1)Nc1ccc(Cl)cc1 [Compound 3],A (100)
5,N#Cc1ccc(CC(=NNC(=O)Nc2ccc(OC(F)(F)F)cc2)c2cccc(I)c2)cc1 [Compound 37],A (100)
6,N#Cc1cccc(CC(NNC(=O)Nc2ccc(OC(F)(F)F)cc2)c2ccccc2)c1 (stereo not shown) [Compound 121],C (89-80)
7,N#Cc1ccc(CC(=NNC(=S)Nc2ccc(OC(F)(F)F)cc2)c2cccc(Cl)c2)cc1 [Compound 20],A (100)
8,N#Cc1ccc(CC(NNC(=O)Nc2ccc(SC(F)(F)F)cc2)c2cccc(Cl)c2)cc1 (stereo not shown) [Compound 92],A (100)
9,O=C(NN=C(Cc1ccc(Cl)cc1)c1ccccc1)Nc1ccc(OC(F)(F)F)cc1 [Compound 4],A (100)
10,Cc1cccc(C(Cc2ccc(C#N)cc2)=NNC(=O)Nc2ccc(Cl)cc2)c1 [Compound 40],D (79-50)
11,O=C(NN=C(Cc1ccc([N+](=O)[O-])cc1)c1ccccc1)Nc1ccc(Cl)cc1 [Compound 10],A (100)

# Test system: fireant (Solenopsis geminata)
# Experiment: Test Example 2: drench treatment of fireant nests
# Format: in vivo
# Set-up: key: A: Nest is completely destructed or activity of the nest is extremely low.; B: Activity of the nest is exhibited.; C: High activity of the nest is exhibited.; D: Activity of the nest is extremely high
# Conditions: 1 g of the active ingredient per one nest, 14 days after the treatment
# Method: The ant controller of the present invention was applied to nests (anthill) of fireant (Solenopsis geminata) with drench treatment, in terms of 1 g of the active ingredient per one nest. 14 Days after the treatment of the ant controller, the activity of the nests was evaluated according to the following criterion. The test was carried out with one block per one nest.
row,Structure (SMILES),activity of the nests (effect)
1,N#Cc1ccc(CC(NNC(=O)Nc2ccc(OC(F)(F)F)cc2)c2cccc(C(F)(F)F)c2)cc1 (stereo not shown) [Compound 96],A
2,N#Cc1ccc(CC(=NNC(=O)Nc2ccc(OC(F)(F)F)cc2)c2cccc(C(F)(F)F)c2)cc1 [Compound 44],A

# Reference: patent publication US8361487B1, “Ant controllers and method for application thereof” (BASF Aktiengesellschaft, priority 1999, dated 2013)
